Source: US20040247696A1, “Methods of using electron active compounds for managing conditions afflicting mammals” (priority 2001, published 2004)

Legend:
[1] = animals not prone to silver allergies
Text: Preferred routes of administration include topically and application to mucosa. Application can be made, for example, digitally or using a suitable applicator.

[2] = tested on: salmonella; assay: AOAC culture test, salmonella-contaminated aqueous solutions; assay type: cell-based; conditions: ten minutes exposure
Method: Unless otherwise indicated, antimicrobial evaluations of the various fluorinator compounds tested were performed versus control samples in cultures in accordance with the protocol as set forth in AOAC (15th) 1990:965:13 at colony densities indicated in the examples.
Aqueous solutions were prepared having a salmonella contamination at a cell density of about 500,000 cfu/mL. Two solutions of XeF2 were prepared: one as a 1% solution in 85% phosphoric acid stabilizer, and a second solution containing no stabilizer. The materials were cultured versus controls at concentrations of about 2 ppm and about 4 ppm XeF2 and at a pH of about 9.

[3] = tested on: coliform; assay: AOAC culture test, coliform-contaminated water; assay type: cell-based; conditions: about 2 PPM XeF2 + about 20 PPM KPS, pH about 7, 37.4 cfu/mL
Method: These and other aspects of the present invention may be more fully understood with reference to the following examples, which are merely illustrative of the preferred embodiments of the present invention, and are not to be construed as limiting the invention, the scope of which is defined by the appended claims. Unless otherwise indicated, antimicrobial evaluations of the various fluorinator compounds tested were performed versus control samples in cultures in accordance with the protocol as set forth in AOAC (15th) 1990:965:13 at colony densities indicated in the examples.
Contaminated water was prepared and measured to have AOAC coliform counts averaging 37.4 colony forming units per milliliter (cfu/mL). The water was treated by first adding crystal potassium monopersulfate (KPS) stabilizer, commercially available from E.I. DuPont de Nemours & Co. Corp. as OXONE®, and xenon difluoride (XeF2). The concentration in solution of the KPS and XeF2 was about 20 PPM and about 2 PPM respectively, and the pH of the treated solution was about 7.

**Q.** For `[Ag+].[Ag+].[Ag+].[Ag+].[O-2].[O-2].[O-2].[O-2]` [Ag4O4, tetrasilver tetroxide], which “Ill effects or irritation on application to the skin” value [1] is on record?
**A.** Its value is “without any ill effects or evidence of irritation”.

**Q.** For `F[Xe]F` [XeF2, xenon difluoride], which salmonella inhibition ([2]; about 2 ppm XeF2, pH about 9, about 500,000 cfu/mL) is on record?
**A.** Its salmonella inhibition is “about 13.2%”.

**Q.** What about the salmonella inhibition ([2]; about 4 ppm XeF2, pH about 9, about 500,000 cfu/mL) of the same compound?
**A.** Its salmonella inhibition is “about 96.4%”.

**Q.** And the coliform inhibition ([3]; 5 minutes exposure)?
**A.** Its coliform inhibition is “about 73%”.

**Q.** What about the coliform inhibition ([3]; 10 minutes exposure) of the same compound?
**A.** Its coliform inhibition is “about 77%”.
